Measurements: patent publication US12630498B2 (Genzyme Corporation, priority 2019, dated 2026)

Key:
[1] = molecular target: T1, human Cystic Fibrosis Transmembrane Conductance Regulator (CFTR) harboring the ΔF508 mutation (Homo sapiens, UniProt P13569, DEL508-508); assay: H441 cell ΔF508-CFTR-HRP cell surface assay (Emax and EC50); type: cell-based; settings: for Emax: NCI-H441, NA = Not active
T1 construct: expressed in transfected cells; host or cells: H441 carcinoma line (G418-selected)
Method in brief: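 H441 and 41o- bronchial epithelial cells expressing ΔF508-CFTR with an extracellular-loop-4 HRP tag were treated with a 15-point compound series (24.5–0.001 μM) for two nights, H441 at 27° C, 41o- at 37° C with 0.0005 mg/ml doxycycline. Surface HRP luminescence read; % of maximum VX809 signal and EC50 derived.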

[2] = molecular target: T2, CFTR-mediated transepithelial chloride transport in primary human bronchial epithelial cells from a ΔF508 homozygous CF donor (Homo sapiens, UniProt P13569, DEL508-508); assay: TECC24 recording of CFTR-mediated transepithelial chloride transport in CF-HBE cells (AUC fold over DMSO); type: cell-based; settings: test agent 10 μM, 48 hours incubation, AUC of forskolin-stimulated IEQ relative to DMSO
T2 construct: Primary human bronchial epithelial cells from a ΔF508 homozygous CF donor; host or cells: primary CF-HBE cells, ΔF508 homozygous donor
Method: Example 316: TECC24 AUC Fold Over DMSO @ 10 uM
The effects of a test agent on CFTR-mediated transepithelial chloride transport was measured using TECC24 recording analysis. Test agents were solubilized in DMSO. Solubilized test agents were mixed with incubation medium containing DMEM/F12, Ultroser G (2%; Crescent Chemical, catalog #67042), Hyclone Fetal Clone II (2%; GE Healthcare, catalog #SH30066.02), bovine brain extract (0.25%; Lonza, catalog #CC-4098), insulin (2.5 μg/mL), IL-13 (10 ng/mL), hydrocortisone (20 nM), transferrin (2.5 μg/mL), triiodothyronine (500 nM), ethanolamine (250 nM), epinephrine (1.5 μM), phosphoethanolamine (250 nM), and retinoic acid (10 nM). Primary human bronchial epithelial cells from a ΔF508 homozygous CF donor (CF-HBE cells; from University of North Carolina Cystic Fibrosis Tissue Procurement Center), grown on Transwell HTS 24-well cell culture inserts (Costar, catalog #3378), were exposed to test agents or controls dissolved in incubation medium. The CF-HBE cells were cultured at 36.5° C. for 48 hours before TECC24 recordings were performed in the presence or absence of test agent, a positive control or vehicle (DMSO).
Following incubation, the transwell cell culture inserts containing the test agent or control-treated CF-HBE cells were loaded onto a TECC24 apparatus (TECC v7 or MTECC v2; EP Design) to record the transepithelial voltage (VT) and resistance (TEER) using 4 AgCl electrodes per well configured in current-clamp mode. The apical and basolateral bath solutions both contained (in mM) 140 NaCl, 5 KCl, 2 CaCl2), 1 MgCl2, 10 Hepes, and 10 glucose (adjusted to pH 7.4 with NaOH). To inhibit basal Na+ absorption, the ENaC inhibitor benzamil (10 μM) was added to the bath. Then, the adenylate cyclase activator, forskolin (10 μM), was added to the bath to activate CFTR. The forskolin-stimulated Cl-transport was halted by addition of CFTR inhibitor-172 (20 μM) to the bath at the end of the experiment to confirm specificity. VT and TEER recordings were digitally acquired at routine intervals using TECC or MTECC software (EP Design). VT and TEER were transformed into equivalent transepithelial Cl-current (IEQ), and the Area Under the Curve (AUC) of the IEQ time course between forskolin and CFTR inhibitor-172 addition was generated using Excel (Microsoft). Efficacy is expressed as the ratio of the test agent AUC divided by vehicle AUC. EC50s based on AUC are generated using the non-linear regression log(agonist) vs. response function in Prism software (GraphPad) with Hill Slope fixed=1.
If a test agent increased the AUC of the forskolin-stimulated IEQ relative to vehicle in CF-HBE cells, and this increase was inhibited by CFTR inhibitor-172, then the test agent was considered a CFTR corrector.

T2 sequence (P13569 with tags, fused parts or gaps DEL508-508): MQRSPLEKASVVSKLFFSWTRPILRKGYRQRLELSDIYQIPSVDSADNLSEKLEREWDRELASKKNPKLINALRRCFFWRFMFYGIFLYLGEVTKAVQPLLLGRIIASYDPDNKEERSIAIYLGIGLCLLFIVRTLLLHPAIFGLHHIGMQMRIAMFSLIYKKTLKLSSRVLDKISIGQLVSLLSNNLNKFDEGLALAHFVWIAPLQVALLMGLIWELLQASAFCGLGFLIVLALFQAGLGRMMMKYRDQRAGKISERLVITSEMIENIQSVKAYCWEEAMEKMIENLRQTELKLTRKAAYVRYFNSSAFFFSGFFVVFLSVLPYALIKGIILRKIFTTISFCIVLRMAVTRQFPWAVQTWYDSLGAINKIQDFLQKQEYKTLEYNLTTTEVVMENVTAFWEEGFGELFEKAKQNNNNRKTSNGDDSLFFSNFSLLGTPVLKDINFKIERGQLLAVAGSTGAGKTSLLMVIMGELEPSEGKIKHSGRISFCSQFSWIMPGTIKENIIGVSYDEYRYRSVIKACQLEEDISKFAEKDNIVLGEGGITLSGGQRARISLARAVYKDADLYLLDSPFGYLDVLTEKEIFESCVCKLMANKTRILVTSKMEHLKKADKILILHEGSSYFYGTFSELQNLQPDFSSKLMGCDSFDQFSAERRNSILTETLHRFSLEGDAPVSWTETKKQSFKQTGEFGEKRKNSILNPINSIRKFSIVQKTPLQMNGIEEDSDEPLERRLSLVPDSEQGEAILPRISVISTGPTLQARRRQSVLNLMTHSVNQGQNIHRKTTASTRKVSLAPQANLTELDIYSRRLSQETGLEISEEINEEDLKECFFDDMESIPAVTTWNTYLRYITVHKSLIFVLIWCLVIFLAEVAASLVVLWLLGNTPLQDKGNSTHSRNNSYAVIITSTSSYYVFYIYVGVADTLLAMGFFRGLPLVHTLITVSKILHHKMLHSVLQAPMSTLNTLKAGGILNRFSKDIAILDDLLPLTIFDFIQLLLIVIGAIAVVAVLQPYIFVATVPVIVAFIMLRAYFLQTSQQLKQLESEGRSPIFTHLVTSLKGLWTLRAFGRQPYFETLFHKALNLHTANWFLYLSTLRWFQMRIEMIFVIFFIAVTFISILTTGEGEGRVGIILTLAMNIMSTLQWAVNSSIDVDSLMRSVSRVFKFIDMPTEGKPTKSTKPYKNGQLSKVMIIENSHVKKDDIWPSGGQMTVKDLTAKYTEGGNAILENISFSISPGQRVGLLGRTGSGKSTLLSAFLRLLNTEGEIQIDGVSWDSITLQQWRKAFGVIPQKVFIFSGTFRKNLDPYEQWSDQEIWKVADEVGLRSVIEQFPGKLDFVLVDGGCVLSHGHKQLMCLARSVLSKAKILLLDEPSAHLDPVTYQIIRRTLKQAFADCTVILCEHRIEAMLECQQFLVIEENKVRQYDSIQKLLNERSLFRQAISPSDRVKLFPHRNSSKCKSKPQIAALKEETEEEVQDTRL
T1 sequence (P13569 with tags, fused parts or gaps DEL508-508): as above

Row | Structure (SMILES) | EC50 [1] | Emax [1] | TECC24 AUC fold over DMSO @10 μM [2]
1 | CC(C)(C)C[C@H](NC(=O)c1ccc2cc(F)ccc2c1OCC1CCCCC1)C(=O)O [Example 205, (S)-2-(1-(cyclohexylmethoxy)-6-fluoro-2-naphthamido)-4,4-dimethylpentanoic Acid] | 4.8 µM | 92.2% | C (“C” refers to AUC @10 uM <4)
2 | CC(OCc1ccccc1)[C@H](NC(=O)c1ccc2cc(F)ccc2c1OCc1ccc(Cl)c(Cl)c1)C(=O)O (stereo in doubt) [Example 208, O-benzyl-N-(1-((3,4-dichlorobenzyl)oxy)-6-fluoro-2-naphthoyl)-L-allothreonine] | 1.5 µM | 154% | C (“C” refers to AUC @10 uM <4)
3 | O=C(N[C@H](C(=O)O)C1CCCC1)c1ccc2cc(F)ccc2c1OCc1ccc(SC(F)(F)F)cc1 [Example 116, (S)-2-cyclopentyl-2-(6-fluoro-1-((4-((trifluoromethyl)thio)benzyl)oxy)-2-naphthamido)acetic Acid] | 1.2 µM | 51.4% | C (“C” refers to AUC @10 uM <4)
4 | Cc1cc(C)c(C[C@H](NC(=O)c2ccc3ccccc3c2OCc2ccc(C(F)(F)F)cc2)C(=O)O)c(C)c1 [Example 178, (S)-3-mesityl-2-(1-((4-(trifluoromethyl)benzyl)oxy)-2-naphthamido)propanoic Acid] | 0.9 µM | 150% | C (“C” refers to AUC @10 uM <4)
5 | Cc1cc(COc2c(C(=O)N[C@H](C(=O)O)C(C)(C)C)ccc3ccccc23)no1 [Example 86, (S)-3,3-dimethyl-2-(1-((5-methylisoxazol-3-yl)methoxy)-2-naphthamido)butanoic Acid] | 5.6 µM | 108% | C (“C” refers to AUC @10 uM <4)
6 | CCC(C)(C)[C@H](NC(=O)c1ccc2cc(F)ccc2c1OCc1ccc(SC(F)(F)F)cc1)C(=O)O [Example 84, (S)-2-(6-fluoro-1-((4-((trifluoromethyl)thio)benzyl)oxy)-2-naphthamido)-3,3-dimethylpentanoic Acid] | 0.5 µM | 80.5% | B (“B” refers to AUC @10 uM between 4-6)
7 | CC(C)(C)[C@H](NC(=O)c1ccc2ccccc2c1OCc1ccc(C#N)cc1)C(=O)O [Example 31, (S)-2-(1-((4-cyanobenzyl)oxy)-2-naphthamido)-3,3-dimethylbutanoic Acid] | 8 µM | 77.1% | C (“C” refers to AUC @10 uM <4)
8 | CC(C)(C)[C@H](NC(=O)c1ccc2ccccc2c1OCc1ccc(Cl)c(Cl)c1)C(=O)O [Example 47, (S)-2-(1-((3,4-dichlorobenzyl)oxy)-2-naphthamido)-3,3-dimethylbutanoic Acid] | 0.9 µM | 117% | C (“C” refers to AUC @10 uM <4)
9 | CCC(C)(C)[C@H](NC(=O)c1ccc2ccc(F)cc2c1OCc1ccc(C(F)(F)F)cc1)C(=O)O [Example 274, (2S)-2-[[7-fluoro-1-[[4-(trifluoromethyl)phenyl]methoxy]naphthalene-2-carbonyl]amino]-3,3-dimethyl-pentanoic Acid] | 0.2 µM | 195% | A (“A” refers to AUC @10 uM >6)
10 | CC(C)(C)[C@@H](NC(=O)c1ccc2ccc(F)cc2c1OCc1ccc(C(F)(F)F)cc1)C(=O)O [Example 261, (2R)-2-[[7-fluoro-1-[[4-(trifluoromethyl)phenyl]methoxy]naphthalene-2-carbonyl]amino]-3,3-dimethyl-butanoic Acid] | 0.9 µM | 68.4% | A (“A” refers to AUC @10 uM >6)
11 | CC1([C@H](NC(=O)c2ccc3ccc(Cl)cc3c2OCc2ccc(C(F)(F)F)cc2)C(=O)O)CCCC1 [Example 302, (S)-2-(7-chloro-1-((4-(trifluoromethyl)benzyl)oxy)-2-naphthamido)-2-(1-methylcyclopentyl)acetic Acid] | 0.1 µM | 248% | A (“A” refers to AUC @10 uM >6)
12 | O=C(N[C@@H](Cc1ccc(C(F)(F)F)cc1)C(=O)O)c1ccc2cc(F)ccc2c1OCc1ccc(Cl)c(Cl)c1 [Example 210, (S)-2-(1-((3,4-dichlorobenzyl)oxy)-6-fluoro-2-naphthamido)-3-(4-(trifluoromethyl)phenyl)propanoic Acid] | 4.3 µM | 38.8% | C (“C” refers to AUC @10 uM <4)
13 | CC(C)(S[C@@H]1C[C@@H]2CC[C@H]1C2)[C@H](NC(=O)c1ccc2ccccc2c1OCc1ccc(SC(F)(F)F)cc1)C(=O)O [Example 174, (R)-3-(((1S,2R,4R)-bicyclo[2.2.1]heptan-2-yl)thio)-3-methyl-2-(1-((4-((trifluoromethyl)thio)benzyl)oxy)-2-naphthamido)butanoic Acid] | 0.3 µM | 117% | C (“C” refers to AUC @10 uM <4)
14 | O=C(N[C@H](C(=O)O)C1CCCC1)c1ccc2ccccc2c1OCc1ccc(C(F)(F)F)cc1 [Example 154, (S)-2-cyclopentyl-2-(1-((4-(trifluoromethyl)benzyl)oxy)-2-naphthamido)acetic Acid] | 1.9 µM | 118% | A (“A” refers to AUC @10 uM >6)
15 | CC(C)(SCC1CC1(F)F)[C@H](NC(=O)c1ccc2cc(F)ccc2c1OCc1ccc(SC(F)(F)F)cc1)C(=O)O (stereo partly drawn) [Example 167, (2R)-3-(((2,2-difluorocyclopropyl)methyl)thio)-2-(6-fluoro-1-((4-((trifluoromethyl)thio)benzyl)oxy)-2-naphthamido)-3-methylbutanoic Acid] | 1.2 µM | 63.5% | C (“C” refers to AUC @10 uM <4)
16 | CC(OCc1ccccc1)[C@H](NC(=O)c1ccc2ccccc2c1OCc1ccc(OC(F)(F)F)cc1)C(=O)O (stereo in doubt) [Example 188, O-benzyl-N-(1-((4-(trifluoromethoxy)benzyl)oxy)-2-naphthoyl)-L-allothreonine] |  |  | C (“C” refers to AUC @10 uM <4)
17 | O=C(N[C@@H](Cc1ccc(C(F)(F)F)cc1)C(=O)O)c1ccc2cc(F)ccc2c1OCc1ccc(OC(F)(F)F)cc1 [Example 194, (S)-2-(6-fluoro-1-((4-(trifluoromethoxy)benzyl)oxy)-2-naphthamido)-3-(4-(trifluoromethyl)phenyl)propanoic Acid] |  |  | C (“C” refers to AUC @10 uM <4)
18 | CC(C)(C)c1ccc(COc2c(C(=O)N[C@@H](Cc3ccccc3)C(=O)O)ccc3ccccc23)cc1 [Example 96, (1-((4-(tert-butyl)benzyl)oxy)-2-naphthoyl)-L-phenylalanine] |  |  | C (“C” refers to AUC @10 uM <4)
19 | CCC(C)(C)[C@@H](NC(=O)c1ccc2ccc(C)cc2c1OCc1ccc(C(F)(F)F)cc1)C(=O)O [Example 305, (R)-3,3-dimethyl-2-(7-methyl-1-((4-(trifluoromethyl)benzyl)oxy)-2-naphthamido)pentanoic Acid] |  |  | A (“A” refers to AUC @10 uM >6)
20 | CC(C)(C)C[C@H](NC(=O)c1ccc2cc(F)ccc2c1OCc1ccc(Cl)c(Cl)c1)C(=O)O [Example 211, (S)-2-(1-((3,4-dichlorobenzyl)oxy)-6-fluoro-2-naphthamido)-4,4-dimethylpentanoic Acid] |  |  | C (“C” refers to AUC @10 uM <4)
